Source: patent US6191282A, “Substituted 5-membered ring heterocycles comprising a bicyclic or tricyclic group their preparation and their use” (Hoechst Marion Roussel, priority 1993, dated 2001)
Where a name gives a salt, the structure may show the parent alone. Read-outs that look alike come from different tables or passages of the source.

Assays:
[1] = test system: gel-filtered human thrombocytes; test: Inhibition of the aggregation of gel-filtered human thrombocytes following stimulation with ADP or thrombin (Test method 1); type: cell-based; details: 1 mg/ml fibrinogen, 37° C., GFP from 2-4 donors
Method: As a functional test, measurement is made of the inhibition of the aggregation of gel-filtered human thrombocytes, following stimulation with ADP or thrombin, by the compounds according to the invention.
For this purpose, human thrombocytes were isolated from platelet-rich plasma (PRP) by gel filtration on Sepharose 2 B. The resulting suspension of gel-filtered platelets (GFP), which contained 3×10^8 platelets/ml, was activated in the presence of 1 mg/ml of fibrinogen either with 10 μM ADP or with 0.1 U/ml thrombin, and stirred in an aggregometer (PAP 4, Biodata, Hatboro, Penna., USA) at 37° C. and at 1000 revolutions per minute. The maximum increase in the translucency is taken as a measure of the aggregation. The test substances were added to the GFP at 37° C. and 2 min before activating with ADP or thrombin.

[2] = target: T1, isolated fibrinogen receptor (glycoprotein IIb/IIIa) (Homo sapiens, UniProt P05106+P08514); test: Inhibition of 125I-fibrinogen binding to the isolated, immobilized receptor (glycoprotein IIb/IIIa) (Test method 3); details: isolated receptor immobilized in microtitre plates; read-out: Ki, inhibition of the binding of 125I-fibrinogen, ADP-stimulated
T1 construct: isolated from human thrombocytes and immobilized in microtitre plates; from tissue; host or cells: human thrombocytes (platelets), receptor isolated
T1 sequence (P08514 32-887 limits assumed): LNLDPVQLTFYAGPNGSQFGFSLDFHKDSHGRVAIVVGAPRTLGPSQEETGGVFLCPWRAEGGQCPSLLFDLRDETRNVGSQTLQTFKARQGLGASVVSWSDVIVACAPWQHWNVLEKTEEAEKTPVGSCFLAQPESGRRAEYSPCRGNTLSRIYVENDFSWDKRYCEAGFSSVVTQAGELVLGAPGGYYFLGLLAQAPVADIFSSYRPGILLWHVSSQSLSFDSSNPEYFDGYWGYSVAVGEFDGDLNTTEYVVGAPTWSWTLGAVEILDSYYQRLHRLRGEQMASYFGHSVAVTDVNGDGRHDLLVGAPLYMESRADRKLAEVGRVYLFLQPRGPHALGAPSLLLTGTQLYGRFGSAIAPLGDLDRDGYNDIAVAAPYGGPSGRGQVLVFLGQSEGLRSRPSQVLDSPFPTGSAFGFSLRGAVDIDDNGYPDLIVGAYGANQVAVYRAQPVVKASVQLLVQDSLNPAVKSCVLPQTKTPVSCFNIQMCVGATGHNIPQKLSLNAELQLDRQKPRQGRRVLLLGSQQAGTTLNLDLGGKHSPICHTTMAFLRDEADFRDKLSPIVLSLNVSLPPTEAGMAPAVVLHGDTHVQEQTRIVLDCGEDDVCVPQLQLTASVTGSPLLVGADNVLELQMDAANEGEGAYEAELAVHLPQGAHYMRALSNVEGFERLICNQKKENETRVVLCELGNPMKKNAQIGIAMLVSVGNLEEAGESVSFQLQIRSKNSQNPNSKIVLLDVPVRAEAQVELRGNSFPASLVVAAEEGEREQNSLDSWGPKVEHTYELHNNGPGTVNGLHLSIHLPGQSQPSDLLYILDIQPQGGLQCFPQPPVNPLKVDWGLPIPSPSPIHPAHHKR
T1 sequence (P08514 891-1039 partner limits assumed): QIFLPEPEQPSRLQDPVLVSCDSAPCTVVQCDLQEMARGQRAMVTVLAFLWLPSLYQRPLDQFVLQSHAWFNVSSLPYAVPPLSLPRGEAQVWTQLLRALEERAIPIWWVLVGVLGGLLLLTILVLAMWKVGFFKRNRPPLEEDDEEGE
T1 sequence (P05106 27-788): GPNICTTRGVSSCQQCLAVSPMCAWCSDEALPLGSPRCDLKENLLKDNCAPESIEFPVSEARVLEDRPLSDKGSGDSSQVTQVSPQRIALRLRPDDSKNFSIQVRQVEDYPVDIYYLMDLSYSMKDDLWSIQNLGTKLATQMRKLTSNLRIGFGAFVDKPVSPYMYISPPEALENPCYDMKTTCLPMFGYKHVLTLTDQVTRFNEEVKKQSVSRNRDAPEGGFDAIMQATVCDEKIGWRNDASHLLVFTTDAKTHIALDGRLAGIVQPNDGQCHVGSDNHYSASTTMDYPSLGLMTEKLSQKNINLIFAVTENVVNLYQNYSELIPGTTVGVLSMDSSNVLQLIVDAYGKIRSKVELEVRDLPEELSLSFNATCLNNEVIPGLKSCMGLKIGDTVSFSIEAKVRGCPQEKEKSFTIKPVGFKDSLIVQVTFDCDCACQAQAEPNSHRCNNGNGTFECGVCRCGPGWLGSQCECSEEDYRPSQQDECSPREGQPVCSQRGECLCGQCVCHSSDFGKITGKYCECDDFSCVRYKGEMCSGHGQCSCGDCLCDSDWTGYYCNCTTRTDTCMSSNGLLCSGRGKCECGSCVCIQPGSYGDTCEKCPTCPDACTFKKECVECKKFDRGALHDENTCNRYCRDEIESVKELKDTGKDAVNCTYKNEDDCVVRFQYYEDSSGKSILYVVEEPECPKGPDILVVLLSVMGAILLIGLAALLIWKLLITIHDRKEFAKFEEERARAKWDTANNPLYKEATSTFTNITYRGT
Method: The inhibition of the binding of fibrinogen to its receptor (glycoprotein IIb/IIIa) which is brought about by the compounds according to the invention is tested on the isolated receptor, which was isolated from human thrombocytes and immobilized in microtitre plates.

[3] = Homo sapiens, ADP-stimulated (10 μM ADP), read-out: IC50, inhibition of thrombocyte aggregation, ADP-stimulated
[4] = Homo sapiens, Thrombin-stimulated (0.1 U/ml thrombin), read-out: IC50, inhibition of thrombocyte aggregation, Thrombin-stimulated
[5] = ADP-stimulated (10 μM ADP), read-out: IC50, inhibition of thrombocyte aggregation, ADP-stimulated
[6] = Thrombin-stimulated (0.1 U/ml thrombin), read-out: IC50, inhibition of thrombocyte aggregation, Thrombin-stimulated

Row | SMILES | IC50 [1, 3] [µM] | IC50 [1, 4] [µM] | Ki [2] [µM] | IC50 [1, 5] [µM] | IC50 [1, 6] [µM]
1 | CC1(c2ccc(C(=N)N)cc2)NC(=O)N(CC(=O)NC(CC(=O)O)c2ccccc2)C1=O (racemic) [Example 13, (R,S)-3-(((R,S)-4-(4-(Aminoiminomethyl)phenyl)-4-methyl-2,5-dioxoimidazolidin-1-yl)acetylamino)-3-phenylpropionic acid hydrochloride] | 0.2 | 0.2 | 0.000748 | – | –
2 | CC1(c2ccc(C(=N)N)cc2)NC(=O)N(CC(=O)NC(CC(=O)O)c2cccc(C(=O)O)c2)C1=O (racemic) [Example 42, (R,S)-3-(((R,S)-4-(4-(Aminoiminomethyl)phenyl)-4-methyl-2,5-dioxoimidazolidin-1-yl)acetylamino)-3-(3-hydroxycarbonylphenyl)propionic acid] | 0.3 | 0.2 | – | – | –
3 | CC1(c2ccc(C(=N)N)cc2)NC(=O)N(CC(=O)NC(CC(=O)O)c2cccc(Oc3ccccc3)c2)C1=O (racemic) [Example 43, (R,S)-3-(((R,S)-4-(4-(Aminoiminomethyl)phenyl)-4-methyl-2,5-dioxoimidazolidin-1-yl)acetylamino)-3-(3-phenoxyphenyl)propionic acid] | 0.5 | 0.5 | – | – | –
4 | COc1cc(C(CC(=O)O)NC(=O)CN2C(=O)NC(C)(c3ccc(C(=N)N)cc3)C2=O)cc(OC)c1OC (racemic) [Example 44, (R,S)-3-(((R,S)-4-(4-(Aminoiminomethyl)phenyl)-4-methyl-2,5-dioxoimidazolidin-1-yl)acetylamino)-3-(3,4,5-trimethoxyphenyl)propionic acid] | 0.4 | 0.2 | – | – | –
5 | CC1(c2ccc(C(=N)N)cc2)NC(=O)N(CC(=O)NC(CC(=O)O)c2ccc(O)cc2)C1=O (racemic) [Example 45, (R,S)-3-(((R,S)-4-(4-(Aminoiminomethyl)phenyl)-4-methyl-2,5-dioxoimidazolidin-1-yl)acetylamino)-3-(4-hydroxyphenyl)priopionic acid] | 0.2 | 0.2 | – | – | –
6 | CC1(c2ccc(C(=N)N)cc2)NC(=O)N(CC(=O)NC(CC(=O)O)c2cccnc2)C1=O (racemic) [Example 47, (R,S)-3-(((R,S)-4-(4-(Aminoiminomethyl)phenyl)-4-methyl-2,5-dioxoimidazolidin-1-yl)acetylamino)-3-(3-pyridyl)propionic acid] | 0.1 | 0.15 | – | – | –
7 | CC1(c2ccc(C(=N)N)cc2)NC(=O)N(CC(=O)NC(CC(=O)O)C2CCCCC2)C1=O (racemic) [Example 49, (R,S)-3-(((R,S)-4-(4-(Aminoiminomethyl)phenyl)-4-methyl-2,5-dioxoimidazolidin-1-yl)acetylamino)-3-cyclohexylpropionic acid] | 0.6 | 0.2 | – | – | –
8 | CN1C(=O)N(CC(=O)NC(CC(=O)O)c2ccccc2)C(=O)C1(C)c1ccc(C(=N)N)cc1 (racemic) [Example 50, (R,S)-3-(((R,S)-4-(4-(Aminoiminomethyl)phenyl)-3,4-dimethyl-2,5-dioxoimidazolidin-1-yl)acetylamino)-3-phenylpropionic acid] | 0.55 | 0.4 | – | – | –
9 | CCN1C(=O)N(CC(=O)NC(CC(=O)O)c2ccccc2)C(=O)C1(C)c1ccc(C(=N)N)cc1 (racemic) [Example 52, (R,S)-3-(((R,S)-4-(4-(Aminoiminomethyl)phenyl)-3-ethyl-4-methyl-2,5-dioxoimidazolidin-1-yl)acetylamino)-3-phenylpropionic acid] | 0.5 | 0.4 | – | – | –
10 | CC1(c2ccc(C(=N)N)cc2)NC(=O)N(CC(=O)NC(CC(=O)O)c2ccc3c(c2)OCO3)C1=O (racemic) [Example 67, (R,S)-3-(((R,S)-4-(4-(aminoiminomethyl)phenyl)-4-methyl-2,5-dioxoimidazolidin-1-yl)acetylamino)-3-(3,4-methylenedioxyphenyl)propionic acid] | 0.08 | 0.2 | – | – | –
11 | CC1(c2ccc(C(=N)N)cc2)NC(=O)N(CC(=O)N[C@H](CC(=O)O)c2ccccc2)C1=O (single isomer, unassigned) [Example 59, (R)-3-(((S or R)-4-(4-(aminoiminomethyl)phenyl)-4-methyl-2,5-dioxoimidazolidin-1-yl)acetylamino)-3-phenylpropionic acid] | – | – | – | 50 | 40
12 | CC1(c2ccc(C(=N)N)cc2)NC(=O)N(CC(=O)N[C@H](CC(=O)O)c2ccccc2)C1=O (single isomer, unassigned) [Example 60, (R)-3-(((R or S)-4-(4-(aminoiminomethyl)phenyl)-4-methyl-2,5-dioxoimidazolidin-1-yl)acetylamino)-3-phenylpropionic acid] | – | – | – | 5 | 4
13 | CC1(c2ccc(C(=N)N)cc2)NC(=O)N(CC(=O)NC[C@H](NC(=O)OCc2ccccc2)C(=O)O)C1=O (stereo partly drawn) [Example 6, 3-(((R,S)-4-(4-(Aminoiminomethyl)phenyl)-4-methyl-2,5-dioxoimidazolidin-1-yl)acetylamino)-2-benzyloxycarbonylaminopropionic acid] | 2.5 | 0.8 | – | – | –
14 | CC1(c2ccc(C(=N)N)cc2)NC(=O)N(CC(=O)NC[C@H](N)C(=O)O)C1=O (stereo partly drawn) [Example 7, 2-Amino-3-(((R,S)-4-(4-(aminoiminomethyl)-phenyl)-4-methyl-2,5-dioxoimidazolidin-1-yl)acetylamino)propionic acid hydrochloride] | 0.3 | 0.3 | – | – | –
15 | CC1(c2ccc(CN)cc2)NC(=O)N(CC(=O)N[C@@H](CC(=O)O)C(=O)N[C@H](C(=O)O)c2ccccc2)C1=O (stereo partly drawn) [Example 8, ((R,S)-4-(4-(Aminomethyl)phenyl)-4-methyl-2,5-dioxoimidazolidin-1-yl)acetyl-L-aspartyl-L-phenylglycine] | 0.15 | 0.1 | – | – | –
16 | N=C(N)c1ccc(CC2NC(=O)N(CC(=O)NC[C@H](NC(=O)OCc3ccccc3)C(=O)O)C2=O)cc1 (stereo partly drawn) [Example 9, 3-(((R,S)-4-(4-(Aminoiminomethyl)benzyl)-2,5-dioxoimidazolidin-1-yl)acetylamino)-2-benzyloxycarbonylaminopropionic acid] | 1 | 0.5 | – | – | –
17 | CC1(c2ccc(NC(=N)N)cc2)NC(=O)N(CC(=O)N[C@@H](CC(=O)O)C(=O)N[C@H](C(=O)O)c2ccccc2)C1=O (stereo partly drawn) [Example 10, ((R,S)-4-(4-Guanidinophenyl)-4-methyl-2,5-dioxoimidazolidin-1-yl)acetyl-L-aspartyl-L-phenylglycine] | 0.15 | 0.06 | – | – | –
18 | CC(C)(C)OC(=O)NN(CC(=O)O)C(=O)CN1C(=O)NC(=Cc2ccc(C(=N)N)cc2)C1=O [Example 20] | 2 | 1 | – | – | –
19 | COC(=O)[C@@H](NC(=O)[C@H](CC(=O)O)NC(=O)CN1C(=O)NC(C)(c2ccc(C(=N)N)cc2)C1=O)c1ccccc1 (stereo partly drawn) [Example 23, ((R,S)-4-(4-(Aminoiminomethyl)phenyl)-4-methyl-2,5-dioxoimidazolidin-1-yl)acetyl-L-aspartyl-L-phenylglycine methyl ester] | 0.03 | 0.05 | – | – | –
20 | CCN1C(=O)N(CC(=O)N[C@@H](CC(=O)O)C(=O)N[C@H](C(=O)O)c2ccccc2)C(=O)C1(C)c1ccc(C(=N)N)cc1 (stereo partly drawn) [Example 24, ((R,S)-4-(4-(Aminoiminomethyl)phenyl)-3-ethyl-4-methyl-2,5-dioxoimidazolidin-1-yl)acetyl-L-aspartyl-L-phenylglycine] | – | – | – | 0.055 | 0.08
21 | CC(C)(C)C1(c2ccc(C(=N)N)cc2)NC(=O)N(CC(=O)N[C@@H](CC(=O)O)C(=O)N[C@H](C(=O)O)c2ccccc2)C1=O (stereo partly shown) [Example 29] | 0.05 | 0.04 | – | – | –
22 | CC1(c2ccc(C(=N)N)cc2)NC(=O)N(CC(=O)N[C@@H](CC(=O)O)C(=O)NC23CC4CC(CC(C4)C2)C3)C1=O (stereo partly drawn) [Example 68, (2-((R,S)-4-(4-(aminoiminomethyl)phenyl)-4-methyl-2,5-dioxoimidazolidin-1-yl)acetyl)-L-aspartyl-1-adamantylamide] | 0.05 | 0.045 | – | – | –
23 | CC1(c2ccc(C(=N)N)cc2)NC(=O)N(CC(=O)N[C@@H](CC(=O)O)C(=O)NC2C3CC4CC(C3)CC2C4)C1=O (stereo partly drawn) [Example 69, (2-((R,S)-4-(4-(Aminoiminomethyl)phenyl)-4-methyl-2,5-dioxoimidazolidin-1-yl)acetyl)-L-aspartyl-2-adamantylamide] | 0.025 | 0.045 | – | – | –
24 | CC1(c2ccc(C(=N)N)cc2)NC(=O)N(CC(=O)N[C@@H](CC(=O)O)C(=O)NCC23CC4CC(CC(C4)C2)C3)C1=O (stereo partly drawn) [Example 70, (2-((R,S)-4-(4-(Aminoiminomethyl)phenyl)-4-methyl-2,5-dioxoimidazolidin-1-yl)acetyl)-L-aspartyl-(1-adamantylmethyl)amide] | 0.065 | 0.07 | – | – | –
